Values quoted from earlier work, collected in patent US8008021B2, “N-terminal truncation of cardiac troponin subunits and their roles in cardiovascular disease” (Evanston Northwestern Healthcare, priority 2006, dated 2011).

Target: T1, m-calpain (Homo sapiens, UniProt P17655)
T1 sequence (P17655 1-700): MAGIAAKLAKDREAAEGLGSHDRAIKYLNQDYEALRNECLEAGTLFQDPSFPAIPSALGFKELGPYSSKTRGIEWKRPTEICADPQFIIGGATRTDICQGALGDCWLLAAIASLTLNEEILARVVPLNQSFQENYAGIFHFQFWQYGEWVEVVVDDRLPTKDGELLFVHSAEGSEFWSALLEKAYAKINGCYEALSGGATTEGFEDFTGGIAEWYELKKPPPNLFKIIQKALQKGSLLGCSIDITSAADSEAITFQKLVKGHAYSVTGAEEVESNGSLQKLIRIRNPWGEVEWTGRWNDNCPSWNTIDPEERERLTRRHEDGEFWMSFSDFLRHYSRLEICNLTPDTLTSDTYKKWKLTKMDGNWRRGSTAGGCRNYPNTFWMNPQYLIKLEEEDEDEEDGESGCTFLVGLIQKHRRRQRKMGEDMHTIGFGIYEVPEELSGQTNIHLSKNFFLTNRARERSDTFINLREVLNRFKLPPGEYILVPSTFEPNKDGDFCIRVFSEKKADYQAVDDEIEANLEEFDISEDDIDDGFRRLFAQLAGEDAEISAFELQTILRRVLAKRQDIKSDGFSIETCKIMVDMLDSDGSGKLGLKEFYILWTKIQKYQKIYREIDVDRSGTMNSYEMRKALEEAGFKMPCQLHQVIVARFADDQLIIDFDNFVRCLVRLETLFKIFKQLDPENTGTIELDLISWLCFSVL
T1 sequence (P04632 1-268 partner): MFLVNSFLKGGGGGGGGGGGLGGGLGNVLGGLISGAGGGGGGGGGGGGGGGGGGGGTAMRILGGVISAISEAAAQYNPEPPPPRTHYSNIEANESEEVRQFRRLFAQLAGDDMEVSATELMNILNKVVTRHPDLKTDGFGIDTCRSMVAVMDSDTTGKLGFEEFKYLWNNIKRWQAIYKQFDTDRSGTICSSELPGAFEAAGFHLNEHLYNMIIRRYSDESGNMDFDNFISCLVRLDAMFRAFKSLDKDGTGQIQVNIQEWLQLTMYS
Conditions: reference 43; read-out: apparent inhibition constant Ki against m-calpain; cited from earlier work

SMILES | Ki [nM]
O=C(O)/C(S)=C/c1ccc(I)cc1 [PD150606] | 370 ± 30
O=C(O)/C(S)=C/c1c[nH]c2ccc(F)cc12 [PD151746] | 5330 ± 770
